Converted amounts (≈) assume the structure as drawn. Where a name gives a salt, the structure may show the parent alone. Read-outs that look alike come from different tables or passages of the source. Some results are limits rather than exact numbers.

The target of one series is T1, 5-HT1A receptor (Homo sapiens, UniProt P08908).
T1 sequence (P08908 1-422): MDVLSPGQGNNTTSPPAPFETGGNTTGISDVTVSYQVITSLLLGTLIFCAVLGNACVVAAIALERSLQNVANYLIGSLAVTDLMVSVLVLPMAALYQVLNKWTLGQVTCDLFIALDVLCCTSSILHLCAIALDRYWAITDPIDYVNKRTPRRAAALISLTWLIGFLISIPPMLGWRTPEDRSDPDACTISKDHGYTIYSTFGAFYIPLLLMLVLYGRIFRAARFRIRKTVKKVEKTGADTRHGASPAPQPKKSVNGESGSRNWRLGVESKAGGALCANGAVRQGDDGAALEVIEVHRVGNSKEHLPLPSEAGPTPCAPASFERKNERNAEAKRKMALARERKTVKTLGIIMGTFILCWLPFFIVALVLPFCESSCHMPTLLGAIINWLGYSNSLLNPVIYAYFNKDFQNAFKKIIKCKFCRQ
The series is described as follows: 5-HT1A receptor cAMP agonist test. Format: cell-based. The text has this: The cAMP detection kit was purchased from Cisbio; the HEK293 cell line stably expressing 5-HT1A receptor was constructed by Shanghai Shujing Biotechnology Co., Ltd.; Serotonin, Forskolin and IBMX were purchased from Sigma; ProxiPlate-384-well plates was purchased from PerkinElmer; HBSS was purchased from Thermo Fisher Scientific.
Activation rate (activity%)=(negative control ratio-compound ratio)/(negative control ratio-positive control ratio)×100%
The EC50 values of the compounds were calculated using the four-parameter fitting model log(agonist)vs. response--Variable slope(four parameters) in Graph Pad Prism.

The subject of series [1] is high spontaneous activity induced by PCP in mice. The series is described as follows: Inhibition of high spontaneous activity induced by PCP in mice. Format: in vivo. The settings on record: p.o., PCP 5 mg/kg i.p., male C57Bl/6J mice. The procedure: Compounds to be tested: compounds of the examples of the present application, self-made.
That is, animals were transferred from the feeding room to the laboratory, and moved freely in the cage.
(§1) Drug preparation: taking the compound to be tested, adding pure water and performing ultrasonication.
T0 min intraperitoneal injection of modeling drug: 30 minutes after compound administration, the mice were taken out, and administered with PCP (5 mg/kg) by intraperitoneal injection. The blank control group was injected with pure water. After the administration of PCP, the animals were immediately put back into the test box, and the test was continued for 60 minutes.
(§2) The activities of these animals (movement distance in the test box) were automatically recorded by the camera, and analyzed with ANY MAZE software, and the ED50 values were calculated.

The subject of series [2] is high spontaneous activity induced by MK-801 in mice. The series is described as follows: Inhibition of high spontaneous activity induced by MK-801 in mice. The format is in vivo. The settings on record: p.o., MK-801 0.3 mg/kg i.p., male C57Bl/6J mice. The procedure:
Compounds to be tested: compounds in the examples of the present application, self-made.
3.2.1 Grouping of animals: before the start of the experiment, animals were randomly grouped according to body weight.
3.2.2 Animal adaptation: before the experiment, the mice were first adapted to the experimental environment for at least 1 hour. That is, the animals were transferred from the breeding room to the laboratory and moved freely in the cage.
as §1
The blank control group was injected with normal saline.
as §2

In another series the target is T2, TAAR1 receptor (Homo sapiens, UniProt Q96RJ0).
T2 sequence (Q96RJ0 1-339): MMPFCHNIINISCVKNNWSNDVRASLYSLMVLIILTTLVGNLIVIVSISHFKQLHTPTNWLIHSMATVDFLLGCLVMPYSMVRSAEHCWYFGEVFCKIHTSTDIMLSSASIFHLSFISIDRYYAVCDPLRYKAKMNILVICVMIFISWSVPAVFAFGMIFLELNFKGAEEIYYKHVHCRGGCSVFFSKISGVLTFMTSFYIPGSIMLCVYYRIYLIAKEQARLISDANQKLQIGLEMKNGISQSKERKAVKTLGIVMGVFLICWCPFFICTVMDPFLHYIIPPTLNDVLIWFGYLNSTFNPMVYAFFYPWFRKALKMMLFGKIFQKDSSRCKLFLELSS
The series is described as follows: TAAR1 receptor cAMP agonist test. Format: cell-based. The text has this:
The cAMP detection kit was purchased from Cisbio; the […] cell line stably expressing TAAR1 receptor was constructed by Shanghai Shujing Biotechnology Co., Ltd.; IBMX was purchased from Sigma; Phenethylamine (PEA); ProxiPlate-384 well plate was purchased from PerkinElmer; HBSS was purchased from Thermo Fisher Scientific Company.
Activation rate (activity%)=(negative control ratio-compound ratio)/(negative control ratio-positive control ratio)×100%.
The EC50 values of the compounds were calculated using the four-parameter fitting model log(agonist)vs.response--Variable slope(four parameters) in GraphPad Prism.

The nature of series [3]: Mouse pharmacokinetic experiment, oral gavage. Format: in vivo. The settings on record: ICR mice, 5 mg/kg, plasma. On the procedure: The mice were administered by oral gavage, and the plasma concentrations of each hydrochloride crystal form of Compound A in mice were determined, the PK parameters were calculated, and the pharmacokinetics were evaluated.
• (1) Experimental samples: hydrochloride crystal forms I, II, and III of Compound A of the present application, self-made. • (2) Experimental animals: ICR mice, SPF grade, male, Shanghai SLAC Laboratory Animal Co., Ltd.
The compound was administered via oral gavage at a dosage of 5 mg/kg. ICR mice were stratified by body weight and randomly divided into groups of 3 mice each, and fasted overnight before the experiment. Administering according to the prescribed dosage and schedule, and […] of blood was taken from the mandibular vein or saphenous vein of mice by cross sampling at fixed time points to a sample tube containing anticoagulant sodium heparin and placed in wet ice, centrifuging at 4000 r · min^-1 for 10 minutes to separate the plasma for LC-MS analysis.
The measured blood drug concentration-time data was substituted into the Winnonlin 7.0 program to calculate the main pharmacokinetic parameters. Table 3.3: Results of mouse pharmacokinetic experiments

Series [4] can be described thus: Equilibrium solubility in water for 24 hours. Format: physicochemical. The procedure:
Investigating the equilibrium solubility of each hydrochloride crystal form of Compound A in water for 24 hours.
Excess samples of hydrochloride crystal form I and hydrochloride crystal form II of Compound A were weighed and placed in different 10 mL centrifuge tubes, and 1 mL of deionized water was added, sealed with a parafilm, shaking at a constant temperature of 37°C and 150 rpm for 24 hours; after passing through a 0.45 µm organic filter, the sample was diluted and injected for HPLC analysis.

Series [5] can be described thus: Solid (chemical) stability under high temperature, high humidity and light. The format is physicochemical. The procedure:
Investigating the chemical stability of each hydrochloride crystal form of Compound A under high temperature, high humidity, and light conditions.
Appropriate amounts of hydrochloride crystal form I and hydrochloride crystal form II of Compound A were weighed and placed in weighing dishes respectively; three samples for each salt were prepared, and placed respectively in a oven at 60°C, a drying dish with RH 92.5%, and a stability test chamber with an illumination condition of 5000 1x for 85 days. After mixing all samples evenly at day 0, day 10, day 20, and day 85, samples were taken and dissolved in acetonitrile and water, and the content and impurity changes were detected by HPLC-related substance detection method.

Series [6] can be described thus: Solution stability at different pH (HPLC content, 0-24 hours). The format is physicochemical. The settings on record: after 24 hours at pH 1.0, 3.0, 5.0 and 7.0. The procedure: Investigating the solution stability of each hydrochloride crystal form of Compound A.
Solutions with pH of 1.0, 3.0, 5.0, and 7.0 solutions were prepared using hydrochloric acid, phosphoric acid, and sodium hydroxide. Appropriate amounts of hydrochloride crystal form I and hydrochloride crystal form II of Compound A were accurately weighed respectively and added to corresponding 20 mL volumetric flasks and labeled, dissolving in media with different pH, passing through a 0.45 µ m organic filters for HPLC analysis. The content changes of the samples from 0-24 hours were monitor, and the results were calculated.

The mark [7] stands for this setting: Mus musculus, half effective dose.

For `CNC[C@@H]1OCC2(CC2)c2sccc21` (single isomer, unassigned) [Compound A], the EC50 at 5-HT1A receptor (cAMP agonist assay, HEK293 cell line stably expressing 5-HT1A receptor, Forskolin) is 1040 nM; on TAAR1 receptor (cAMP agonist assay, cell line stably expressing TAAR1 receptor), 1550 nM. In addition, the “5-HT1A Max Act%” value at 5-HT1A receptor (maximum activation rate relative to Serotonin positive control) is recorded as 95.2%. Besides, the ED50 came to 0.45 mg/kg in series [1] (setting [7]) and 4.48 mg/kg in series [2] (setting [7]). Moreover, the MED is 0.1 mg/kg in series [1] (minimum effective dose) and 10 mg/kg in series [2] (minimum effective dose). The “TAAR1 Max Act%” value at TAAR1 receptor (maximum activation rate relative to PEA positive control) came to 95.5%.
As to `CNC[C@@H]1OCC2(CC2)c2sccc21` [(R)-1-(4'H,6'H-spiro[cyclopropane-1,7'-thieno[3,2-c]pyran]-4'-yl)-N-methylmethyl-amine], in series [3], the “AUC(inf)” value is 1452.6 ng·h/mL, the Cmax came to 480.3 ng/mL, the Tmax worked out at 0.5 h and the t1/2 is 3.6 h. In addition, in series [3] (male, ICR, mouse, po), the AUC(0-inf) turned out to be 1930 ng·h/mL and the half-life is 2.8 h. Moreover, the Cmax in series [3] (male, ICR, mouse, po, read-out: Cmax) came out at 606 ng/mL. Further, the Tmax in series [3] (male, mouse, read-out: Tmax) was determined as 0.5 h. The solubility at 24 h in series [4] (deionized water, 37 °C, water, thermodynamic from solid) worked out at 155 mg/mL (≈ 740 mM).
With `CNC[C@@H]1OCC2(CC2)c2sccc21` [Hydrochloride crystal form I of Compound A] [(R)-1-(4'H,6'H-spiro[cyclopropane-1,7'-thieno[3,2-c]pyran]-4'-yl)-N-methylmethyl-amine], in series [5] (High humidity of RH 92.5%), the “Increase of total impurities (%) day 10” value is on record as less than 0.1%, the “Increase of total impurities (%) day 20” value is listed as less than 0.1% and the “Increase of total impurities (%) day 85” value was found to be 0.199%. Also, in series [5] (High temperature of 60°C), the “Increase of total impurities (%) day 10” value is given as less than 0.1%, the “Increase of total impurities (%) day 20” value was less than 0.1% and the “Increase of total impurities (%) day 85” value came to 0.182%. Besides, in series [5] (Illumination of 5000 lx), the “Increase of total impurities (%) day 10” value was less than 0.1%, the “Increase of total impurities (%) day 20” value is less than 0.1% and the “Increase of total impurities (%) day 85” value was less than 0.1%. Besides, in series [6], the solution stability entry was “good stability”.
On to `CNC[C@@H]1OCC2(CC2)c2sccc21` [Hydrochloride crystal form II of Compound A] [(R)-1-(4'H,6'H-spiro[cyclopropane-1,7'-thieno[3,2-c]pyran]-4'-yl)-N-methylmethyl-amine], for which, in series [5] (High humidity of RH 92.5%), the “Increase of total impurities (%) day 10” value is recorded as less than 0.1%, the “Increase of total impurities (%) day 20” value is less than 0.1% and the “Increase of total impurities (%) day 85” value came out at 0.145%. In series [5] (High temperature of 60°C), the “Increase of total impurities (%) day 10” value is on record as less than 0.1%, the “Increase of total impurities (%) day 20” value is less than 0.1% and the “Increase of total impurities (%) day 85” value is given as 0.133%. In addition, in series [5] (Illumination of 5000 lx), the “Increase of total impurities (%) day 10” value is recorded as less than 0.1%, the “Increase of total impurities (%) day 20” value is listed as less than 0.1% and the “Increase of total impurities (%) day 85” value was less than 0.1%. Also, in series [3], the “AUC(inf)” value came to 1546.6 ng·h/mL, the Cmax was 488.7 ng/mL, the Tmax is listed as 0.5 h and the t1/2 worked out at 2.2 h. Also, the Solubility in series [4] (equilibrium solubility in deionized water, 37°C) turned out to be 162.30 mg/mL. For the same compound, the solution stability result in series [6] is reported as “good stability”.

One may read the EC50 as the midpoint of the concentration-response curve. A lower EC50 goes with greater potency. The term ED50 denotes the dose that gives a 50% effect, or the effect in half of the subjects. The term Cmax denotes the maximum level reached in the sampled fluid or tissue. One may read the Tmax as the time at which the peak concentration occurs. As a reminder, the AUC(0-inf) is the area under the concentration-time curve extrapolated to infinity. The low end stands for less exposure, the high end for more exposure. The term half-life denotes how long it takes for the measured level to halve. One may read the solubility as how much of the substance goes into solution per volume. High values mean much dissolved substance, low ones little dissolved substance. What is called Solubility is the concentration that dissolves in the medium under given conditions. A higher Solubility goes with much dissolved substance.
